Tests used:
opioid receptors = test: Off-target screening: opioid receptors; assay type: binding; settings: screening assay
Protocol: (§1) To investigate potential off-target activity of dapansutrile, secondary pharmacological effects were assessed through in vitro screening assays. […] An evaluation of 68 critical transmembrane and soluble receptors, ion channels and monoamine transporters were performed for off-target effects of dapansutrile. An additional 69 receptors and enzymes were evaluated with dapansutrile for potential activity in a follow-on study that focused on enzymes involved in inflammatory cascades. A single identified target, the PDE4 enzyme, was inhibited in a concentration range of ≥100 μM (13 μg/mL) and was dose-responsive for effect, but subsequent studies were not conclusive.

pro-IL-1 = test: In vitro screening: inhibition of pro-IL-1; assay type: cell-based
Protocol: as §1

APP/PS1 mice [1] = test: Morris water maze test in APP/PS1 mice; assay type: in vivo
Protocol: (§2) In the study design, 6-month-old wild-type (WT), and AD transgenic APP/PS1[deltaE9] mice were treated with oral dapansutrile via feed pellets ad libitum (approximately 0, 50 or 100 mg/kg/day based on feed concentrations of 0, 3.75 or 7.5 g/kg and food consumption of 4 g/day) for the treatment duration of 3 months. At 9 months old, behavior testing of the mice was performed. In addition, the brains of the mice were extracted, and blood samples were collected. The brains of the mice from each group were performed for electrophysiological and neuronal morphological analysis, cytokine levels and other assays.
Spatial memory formation and retention were assessed using the Morris water maze (MWM) assay. A 10 cm escape platform was submerged 1 cm below the water surface into a circular plastic pool filled up with opaque water. Three visual cues were positioned on the walls around the pool. A digital camera was installed above the center of the maze. Images will be acquired and transmitted to a PC running the tracking software ANY-maze (ANY-maze). On the first three days (pre-training) the mice were trained using a visible platform (the platform was placed above the water surface).
To assess spatial memory formation, the mice were trained to locate the hidden platform for 8 consecutive days. The escape latency of each trial (4 per day with an interval of 3-5 min) was recorded and analyzed by the tracking software. At training day 3 and at day 9, memory retention was assessed in a probe trial performed by removing the platform and analyzing the search pattern used by each mouse for a fixed time of 45 seconds.
The escape latency which describes the time mice need to find the hidden platform was measured and was analyzed as the mean value of the 4 trials each day and shown in FIG. 3A; all genotypes decreased the escape latency from day 1 to day 8. For example, on day 5, wildtype mice (N=8) needed 23.59±4.08 seconds to reach the platform. APP/PS1 (500 mg/kg/day dapansutrile treated) mice (N=5) needed 37.31±4.96 seconds, and APP/PS1 (1000 mg/kg dapansutrile treated) mice (N=6) needed 21.30±3.19 seconds (p value=0.021), compared to APP/PS1 (control food) mice (n=6) needed 42.04±6.89 seconds.
To provide the evidence for cognitive learning 24 hours after the last training session, a reverence test was performed (probe trial) on training day 9. Here, mice were tested in the water maze without the platform to escape and the time was measured in which quadrant the mice spend their time. We compare the mean time in percentage of the three non-target quadrants (NT) to the time in percentage of the target quadrant (TQ, platform was located during training period). […] Whereas there was no preference for a TQ over NT in APP/PS1 (control food) and APP/PS1 500 mg/kg/day (low dose).

[2] = system: APP/PS1 mice hippocampal slices, Schaffer collateral CA3 to CA1 pathway; test: Long-term potentiation (LTP) in acute hippocampal slices of APP/PS1 mice; assay type: in vivo; settings: for normalized mean LTP of last 5 minutes of recording: APP/PS1 mice, 55-60 min after TBS, APP/PS1 untreated 1.303, wildtype 1.553
Protocol: as §2
Given the observed recovery in the impaired learning and memory processes in APP/PS1 mice treated with 1000 mg/kg/day dapansutrile (Example 5), we were interested in determining whether hippocampal network function would be recovered following medium dose of dapansutrile administration. For this purpose, we analyzed synaptic plasticity at the Schaffer collateral pathway connecting the CA3 with the CA1 subfield, one of the most extensively studied synapses in the central nervous system. Long-term potentiation (LTP) as a cellular correlation of learning processes at the Schaffer collateral CA3 to CA1 pathway was induced by theta-burst stimulation (TBS) after 20 min of baseline recording.
Acute hippocampal slices were prepared from mice in four groups including wild-type, APP/PS1, APP/PS1 treated with 500 mg/kg/day and APP/PS1 treated with 1000 mg/kg/day of dapansutrile. Briefly, mice were deeply anesthetized with 100% CO2, killed, and then brains were quickly removed and transferred into ice-cold carbogenated (95% O2 and 5% CO2) artificial CSF (ACSF) solution. Afterward, the hippocampus was dissected and transverse hippocampal slices (400 μm) were obtained using a manual tissue chopper. The hippocampal slices were transferred to an interface recording chamber, where they were incubated at 32° C. with a constant flow rate (0.5 ml/min) of carbogenated ACSF for 2 h before the start of recordings. Field excitatory post synaptic potentials (fEPSPs) were recorded in the stratum radiatum of the CA1 region in hippocampal slices. Responses were evoked by stimulation of the Schaffer collateral pathway using two electrodes. These stimulation electrodes (S1 and S2) were positioned equidistantly on both sides of the recording electrode and, by this means, two independent stimulation pathways could be used for the same CA1 recording region. For recording fEPSPs (measured as the first slope function), the recording electrode was placed in the CA1 apical dendritic layer and signals were amplified by a differential amplifier and digitized. […] The slope of fEPSPs was measured over time for 60 min and normalized to the baseline. […]

[3] = system: AIM2 inflammasome pathway; test: In vitro screening: cytokine production via AIM2 inflammasome pathway; assay type: cell-based
[4] = system: NLRC4 inflammasome pathway; test: In vitro screening: cytokine production via NLRC4 inflammasome pathway; assay type: cell-based
[5] = system: 68 critical transmembrane and soluble receptors, ion channels and monoamine transporters; additional 69 receptors and enzymes; test: Off-target screening panels (68 receptors, ion channels, monoamine transporters; additional 69 receptors and enzymes); settings: all targets other than PDE4
Protocol: as §1

APP/PS1 mice [6] = test: Cytokine levels of brain homogenates of APP/PS1 mice (ELISA); assay type: in vivo; settings: 3 months, vs control food
Protocol: as §2
One hemisphere of each mouse was homogenized in STKM-buffer and centrifuged for 10 min at 4° C. with 13,000 g. The supernatant of the brain lysate was collected and measured for pro-inflammatory mediators IL-6 and IL-1β by ELISA by diluting the sample 1:2. […] The IL-1β levels were reduced in APP/PS1 mice treated with dapansutrile at a low dose (500 mg/kg/day, p value=0.0287) and a medium dose (1000 mg/kg/day, p value=0.0368) compared to APP/PS1 mice fed with control food (FIG. 2B)

PDE4 enzyme = test: Off-target screening: PDE4 enzyme inhibition; assay type: biochemical
Protocol: as §1

IL-1β challenged mice = test: IL-6 and MPO levels after IL-1β intraperitoneal challenge in treated mice (ELISA); assay type: in vivo; settings: 200 mg/kg, 8 injections over 4 days
Protocol: Mice were treated with 200 mg/kg dapansutrile (OLT1177™) for 8 injections over 4 days. Mice were trained on a rotarod on day 3. Twelve hours after the last injection, mice were run on the rotarod for distance. One hour after the rotarod, mice were challenged with 60 ng IL-1β intraperitoneally; mice were then sacrificed 4 hours later. Whole blood, plasma, brain, and lung of the mice were collected. Whole blood was cultured, plasma was frozen. Brain was processed for cytokine analysis. Each group had N=5. Ex vivo samples were obtained from the brain of mice treated with vehicle or dapansutrile and subjected to exhaustive exercise.

COX-1 = COX-1 (Homo sapiens, UniProt P23219); test: Off-target screening: COX-1; assay type: biochemical; settings: screening assay
Protocol: as §1

pro-IL-18 = test: In vitro screening: inhibition of pro-IL-18; assay type: cell-based
Protocol: as §1

COX-2 = molecular target: T1, COX-2 (Homo sapiens, UniProt P35354); test: Off-target screening: COX-2; assay type: biochemical; settings: screening assay
T1 sequence (P35354 18-604): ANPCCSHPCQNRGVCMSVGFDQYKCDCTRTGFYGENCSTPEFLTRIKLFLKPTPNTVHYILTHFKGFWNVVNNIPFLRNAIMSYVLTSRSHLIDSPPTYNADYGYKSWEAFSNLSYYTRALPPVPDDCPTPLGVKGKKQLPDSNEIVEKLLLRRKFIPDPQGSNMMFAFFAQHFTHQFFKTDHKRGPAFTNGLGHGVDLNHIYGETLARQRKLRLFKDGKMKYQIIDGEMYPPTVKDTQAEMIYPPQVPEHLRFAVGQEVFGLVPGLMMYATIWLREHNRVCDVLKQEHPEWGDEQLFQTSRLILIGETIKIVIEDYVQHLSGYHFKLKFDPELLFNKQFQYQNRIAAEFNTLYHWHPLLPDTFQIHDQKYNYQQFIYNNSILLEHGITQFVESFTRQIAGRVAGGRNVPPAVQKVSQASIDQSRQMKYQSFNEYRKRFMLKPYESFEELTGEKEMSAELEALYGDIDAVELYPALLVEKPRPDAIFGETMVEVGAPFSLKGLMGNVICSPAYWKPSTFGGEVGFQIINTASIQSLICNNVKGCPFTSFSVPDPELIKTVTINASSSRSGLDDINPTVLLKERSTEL
Protocol: as §1

[7] = exhaustive exercise, 60 ng IL-1β i.p., 4 hours later, vs vehicle

Chain of COX-1 (P23219 24-599): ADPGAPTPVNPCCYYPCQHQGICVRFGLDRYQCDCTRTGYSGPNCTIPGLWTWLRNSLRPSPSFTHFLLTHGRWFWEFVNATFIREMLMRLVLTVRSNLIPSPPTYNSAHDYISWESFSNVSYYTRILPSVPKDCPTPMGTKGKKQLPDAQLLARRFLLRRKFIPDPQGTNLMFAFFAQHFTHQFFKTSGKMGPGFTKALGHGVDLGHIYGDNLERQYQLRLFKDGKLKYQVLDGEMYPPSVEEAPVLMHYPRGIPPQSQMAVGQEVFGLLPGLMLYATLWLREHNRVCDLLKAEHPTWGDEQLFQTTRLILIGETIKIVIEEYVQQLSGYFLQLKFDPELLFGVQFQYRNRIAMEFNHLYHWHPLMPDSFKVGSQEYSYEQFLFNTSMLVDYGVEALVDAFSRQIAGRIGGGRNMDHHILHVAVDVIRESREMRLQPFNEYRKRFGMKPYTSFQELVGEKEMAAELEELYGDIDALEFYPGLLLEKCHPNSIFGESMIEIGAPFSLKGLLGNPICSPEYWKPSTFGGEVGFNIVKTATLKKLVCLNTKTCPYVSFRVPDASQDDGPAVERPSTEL

SMILES: CS(=O)(=O)CCC#N [dapansutrile, 3-Methanesulfonylpropionitrile]
- interaction with opioid receptors (opioid receptors): no interaction
- inhibition of pro-IL-1 (pro-IL-1): no inhibition
- escape latency (time to reach the hidden platform) (APP/PS1 mice [1]; 500 mg/kg/day, day 5, N=5, APP/PS1 control food 42.04±6.89, wildtype 23.59±4.08): 37.31 ± 4.96 s
- preference for the target quadrant (TQ) over non-target quadrants (NT), probe trial (APP/PS1 mice [1]; 500 mg/kg/day, day 9): no preference
- escape latency (time to reach the hidden platform) (APP/PS1 mice [1]; 1000 mg/kg, day 5, N=6, p value=0.021, APP/PS1 control food 42.04±6.89, wildtype 23.59±4.08): 21.30 ± 3.19 s
- preference for the target quadrant (TQ) over non-target quadrants (NT), probe trial (APP/PS1 mice [1]; 1000 mg/kg/day, day 9, p value=0.0001): significant preference
- LTP impairment in APP/PS1 mice ([2]; 1000 mg/kg/day): rescued
- normalized mean LTP of last 5 minutes of recording ([2]; low dose (500 mg/kg/day), N=2, n=8): 1.198
- normalized mean LTP of last 5 minutes of recording ([2]; medium dose (1000 mg/kg/day), N=1, n=7): 1.469
- LTP deficit in APP/PS1 mice ([2]; low dose, 500 mg/kg/day): not able to improve
- inhibitory effect on cytokine production via the AIM2 inflammasome pathway [3]: no inhibitory effect
- inhibitory effect on cytokine production via the NLRC4 inflammasome pathway [4]: no inhibitory effect
- other effects in the screening assays [5]: No other effects were noted
- IL-1β levels in brain lysate (APP/PS1 mice [6]; 500 mg/kg/day oral via feed, p value=0.0287): reduced
- IL-6 levels in brain lysate (APP/PS1 mice [6]; 1000 mg/kg/day oral via feed, p value=0.0035): reduced
- IL-1β levels in brain lysate (APP/PS1 mice [6]; 1000 mg/kg/day oral via feed, p value=0.0368): reduced
- concentration range in which PDE4 enzyme was inhibited (PDE4 enzyme; dose-responsive, subsequent studies not conclusive): ≥ 100 µM
- concentration range in which PDE4 enzyme was inhibited (PDE4 enzyme; same bound given in μg/mL): ≥ 13 µg/mL
- level of systemic IL-1β after IL-1β stimulation (IL-1β challenged mice; data not shown): also reduced
- level of systemic IL-6 after IL-1β stimulation (IL-1β challenged mice; data not shown): also reduced
- level of systemic MPO after IL-1β stimulation (IL-1β challenged mice; data not shown): also reduced
- IL-6 level in the brain (IL-1β challenged mice; [7]): reduced levels
- myeloperoxidase (MPO) level in the brain (IL-1β challenged mice; [7]): reduced levels
- direct effects on COX-1 (COX-1): no direct effects
- inhibition of pro-IL-18 (pro-IL-18): no inhibition
- direct effects on COX-2 (COX-2): no direct effects

Source: patent US11517554B2, “Method for preventing or treating Alzheimer's disease” (OLATEC THERAPEUTICS LLC, priority 2018, dated 2022)
